Reference: US20170239212A1, “[…] AND USE THEREOF AS ANTIVIRAL AGENTS” (priority 2014, published 2017)

How the values were obtained:
[1] = test system: HIV long terminal repeat (LTR) promoter; test: HOS LTR stimulation assay (luciferase reporter); type: cell-based
Procedure: In the assay, non T cell derived human osteosarcoma (HOS) cells are transfected with a luciferase reporter under control of an HIV long terminal repeat (LTR) promoter. Compounds that stimulate the HIV LTR promoter will produce luciferase in a dose dependent manner.
(§1) Specifically, EC50 and CC50 values were determined in parallel using 10 concentrations of compound from 3 fold serial dilutions starting a 5 uM as the highest concentration. Cells and media were added to compounds with a final concentration of DMSO of 1% and incubated at 37° C., 5% CO2 for 24, 48 and 72 hours. EC50 was measured by induced luciferase activity detected by the use of the Steady-Glo® Luciferase reagent (PROMEGA) with an EnVision (Perkin-Elmer) plate reader. CC50 was determined by the dose dependent knock down of cellular ATP detected by the use of CellTiter-Glo® Luminescent Cell Viability reagent (PROMEGA) with an EnVision (Perkin-Elmer) plate reader.
The error bars represent the average and the standard error of the mean of at least three independent experiments.

U937 cells = test: Inhibition of U937 cell proliferation; type: cell-based, human; conditions: for Block of PMA inhibition of U937 cell proliferation: 10 nM PMA with different concentrations of compound; for Inhibition of U937 cell proliferation (total cells as % of control): compound alone, 72 hours
Procedure: U937 cells (Sundstrom, C.; Nilsson, K.: Establishment and characterization of a human histiocytic lymphoma cell line (U-937). Int. J. Cancer 1976, 17: 565-577), purchased from ATCC (Manassas, Va.) and cultured in RPMI-1640 medium supplemented with 10% FBS (ATCC, Manassas, Va.), were plated in 35 mm dishes at a density of 2×10^5 living cells/ml and treated with different concentrations of the drugs or DMSO. After 72 hours, the number of cells in the supernatant (non-attached cells) and the number of attached cells (after trypsinization) were counted using a Beckman particle counter (Beckman Coulter Inc., Fullerton, Calif.). The number of attached cells is expressed as percent of total cells (FIGS. 8-10).
(§2) U937 cells were treated with PMA (0.1-100 nM), bryostatin 1 (1-1000 nM), the indicated compound (1-1000 nM), 10 nM PMA with different concentrations of bryostatin 1 (1-1000 nM) or 10 nM PMA with different concentrations of indicated compound (1-1000 nM). The number of attached and non-attached cells was counted and the number of total cells was expressed as % of control. The bars and error bars represent the average and the standard error of the mean of five independent experiments (FIGS. 8-10).
(§3) U937 cells (Sundstrom and Nilsson, 1976), purchased from ATCC (Manassas, Va.) and cultured in RPMI-1640 medium supplemented with 10% FBS (ATCC, Manassas, Va.), were plated in 35 mm dishes at a density of 1×10^5 living cells/ml and treated with different concentrations of the drugs or DMSO. After 72 hours, the number of cells in the supernatant (non-attached cells) and the number of attached cells (after trypsinization) were counted using a particle counter. The number of attached cells is expressed as percent of total cells.
U937 cells were treated with PMA (0.01-100 nM), bryostatin 1 (0.1-1000 nM), analogue 12 (MERLE 28) (0.1-1000 nM), 10 nM PMA with different concentrations of bryostatin 1 (0.1-1000 nM) or 10 nM PMA with different concentrations of analogue 12 (0.1-1000 nM). The numbers of attached and non-attached cells were counted and the number of total cells was expressed as % of control. The bars and error bars represent the average and the standard error of the mean of at least three independent experiments.
as §3
as §2, with “at least three” for “five”, “experiments.” for “experiments (FIGS. 8-10).”

[2] = test system: K-562 human myelocytic leukemia cell line; test: Proliferation of K-562 cells; type: cell-based; conditions: maximally effective concentration, 72 hours, vs DMSO control
Procedure: K562 cells were counted after 3 day treatment with different concentrations of PMA (0.1, 1, 10, 100, 1000 nM), bryostatin 1 (0.1, 1, 10, 100, 1000 nM), the bryologues MERLE 21, 22, or 23 (1, 10, 100, 1000, 5000 nM) or DMSO as control. The number of cells is presented as % of the DMSO-treated control. Data represent the means±SEM of three independent experiments.
K-562 cells, from the Biological Testing Branch, National Cancer Institute, NIH (Frederick, Md.), were grown under usual conditions in RPMI-1640, supplemented with 10% fetal bovine serum. 72 hours after treatment with different drugs or DMSO the cell number was determined using a Beckman particle counter (Beckman Coulter Inc., Fullerton, Calif.).

[3] = test system: human osteosarcoma (HOS) cells; test: HOS cell viability (CellTiter-Glo, cellular ATP); type: cell-based; set-up: unit not given here; conditions: knock down of cellular ATP
Procedure: as §1

Jurkat cell line = test: in vitro; type: cell-based; conditions: Jurkat cells, knock down of cellular ATP
Procedure: as §1, with “The compounds were also tested in the T cell derived Jurkat cell line transfected with a luciferase reporter under control of an HIV long terminal repeat (LTR) promoter. Specifically,” for “Specifically,”

[4] = biological target: HIV long terminal repeat (LTR) promoter; test: in vitro; type: cell-based; conditions: Jurkat cells
Procedure: as §1, with “The compounds were also tested in the T cell derived Jurkat cell line transfected with a luciferase reporter under control of an HIV long terminal repeat (LTR) promoter. Specifically,” for “Specifically,”

Structure (SMILES) | Max signal (% of control) ([1]; HOS cells, LTR-luciferase signal) | Conc (uM) at Max ([1]; HOS cells, concentration at maximal LTR-luciferase signal) [µM] | EC50 ([1]; Human immunodeficiency virus 1, HOS) [nM] | Block of PMA inhibition of U937 cell proliferation (U937 cells) | Block of PMA inhibition of U937 cell proliferation (U937 cells; listed as bryostatin 1) | Inhibition of U937 cell proliferation (total cells as % of control) (U937 cells) | Inhibition of U937 cell proliferation (total cells as % of control) (U937 cells; listed as bryostatin 1) | Maximal inhibition of K-562 cell growth [2] [%] | CCEC50 [3] | CC50 (Jurkat cell line) [nM] | EC50 ([4]; LTR-luciferase, incubated 24, 48 and 72 hours (time of the listed values not stated)) [nM] | Selectivity (CC50:EC50) ([4]; ratio of the CC50 to the EC50)
CCC/C=C/C=C/C(=O)O[C@H]1/C(=C/C(=O)OC)C[C@H]2C[C@H]([C@@H](C)O)OC(=O)C[C@H](O)C[C@@H]3C[C@H](OC(C)=O)C(C)(C)[C@](O)(C[C@@H]4C/C(=C/C(=O)OC)C[C@H](/C=C/C(C)(C)[C@]1(O)O2)O4)O3 [Bryostatin 1] | 157 % of control | 2.51 | 2 | blocks the effect of the phorbol ester | able to block the effect of PMA in a dose dependent manner | has much less effect on either response | not strongly antiproliferative | 31.8±9.2 | >5 |  |  | 
CCCCCCCCCCCCCC(=O)O[C@@H]1[C@@H](C)[C@@]2(O)[C@@H](C=C(CO)C[C@]3(O)C(=O)C(C)=C[C@@H]23)[C@@H]2C(C)(C)[C@]12OC(C)=O [PMA, phorbol 12-myristate 13-acetate] |  |  |  |  |  | inhibits cell proliferation |  |  |  | 0.1 | 0.1 | 1
